Key:
CaNT tumours = assay: Induction of necrosis in tumours, scored on haematoxylin and eosin stained sections; assay type: in vivo, mice; conditions: Carcinoma NT tumour, 24 h post dose, mean score from at least three tumours, control tumours 2.0
Experimental: Mice bearing either CaNT or SaS tumours were treated with the test compound and tumours excised after 24 h, fixed in formalin, embedded in paraffin, sectioned and stained with haematoxylin and eosin. Sections were scored based on area of necrosis as follows:
Control tumours had mean scores of 2.0 (CaNT) and 1.0 (SaS). Mean values from at least three different tumours were obtained for each test compound.

CaNT tumour vasculature = assay: Activity against tumour vasculature measured by fluorescent dye (Hoechst 33342): tumour functional vascular volume; assay type: in vivo, mice; conditions: Carcinoma NT tumour, 24 h post dose
Experimental: Activity Against Tumour Vasculature Measured by Fluorescent Dye.
Tumour functional vascular volume in CaNT tumour-bearing mice was measured using the fluorescent dye Hoechst 33342 according to the method of Smith et al (Brit J Cancer 57, 247-253, 1988). The fluorescent dye was dissolved in saline at 6.25 mg/ml and injected intravenously at 10 mg/kg 24 hours after drug treatment. One minute later, animals were killed and tumours excised and frozen; 10 μm sections were cut at 3 different levels and observed under UV illumination using an Olympus microscope equipped with epifluorescence. Blood vessels were identified by their fluorescent outlines and vascular volume was quantified using a point scoring system based on that described by Chalkley, (J Natl Cancer Inst, 4, 47-53, 1943). All estimates were based on counting a minimum of 100 fields from sections cut at the 3 different levels.

Structure (SMILES) | Necrosis score (CaNT tumours; 50 mg/kg i.p.) | Necrosis score (CaNT tumours; 50 mg/kg i.v.) | Vascular volume % reduction (CaNT tumour vasculature; 50 mg/kg i.p.) | Vascular volume % reduction (CaNT tumour vasculature; 50 mg/kg i.v.)
COc1ccc(/C=C\c2cc(OC)c(OC)c(OC)c2)cc1OP(=O)(O)O [CA4P, Combretastatin A4 phosphate] | 6.0 | 5.7 | 91% | 88%
COc1ccc(/C=C\c2cc(OC)c(OC)c(OC)c2)cc1OC(=O)C(N)CCCN=C(N)N[N+](=O)[O-] (centres unmarked) [Cmpd. of Example 1, (Z)-1-(4-Methoxy-3-N^G-nitroarginyloxyphenyl)-2-(3,4,5-trimethoxyphenyl)ethene] |  | 10.0 |  | 98%
COC(=O)C(CCCN=C(N)N[N+](=O)[O-])NC(=O)Oc1cc(/C=C\c2cc(OC)c(OC)c(OC)c2)ccc1OC (centres unmarked) [Cmpd. of Example 2, (Z)-N-[2-methoxy-5-[2-(3,4,5-trimethoxyphenyl)ethenyl]phenoxycarbonyl]N^G-nitroarginine Methyl Ester] | 8.0 |  | 95% | 

From patent publication US7265136B1, “Substituted stilbene compounds with vascular damaging activity” (Angiogene Pharmaceuticals Ltd., priority 1999, dated 2007)
